From the pKa sets of Baltruschat and Czodrowski (2020)

N#CC(C#N)=NNc1ccc(/N=N/c2ccccc2)cc1
pKa (acidic group): 7.33
pKa (basic group): -0.87

Cc1ccccc1O
pKa (acidic group): 10.2

[NH3+][C@@H](Cc1c[nH]cn1)C(=O)N[C@@H](Cc1c[nH]c[nH+]1)C(=O)[O-]
pKa (basic group): 5.6

Clc1cc(-c2ccccc2)nnc1NCC[NH+]1CCOCC1
pKa (basic group): 2.54

C/C=C/c1ccc2cccnc2c1O
pKa (acidic group): 11.3
pKa (basic group): 4.66

CN(CO)c1ccc(Cl)cc1
pKa (basic group): 3.02

c1ccc2cnccc2c1
pKa (basic group): 5.36

O=C(O)Cn1cccc1
pKa (acidic group): 3.3

Cc1ncc(C[NH3+])c(N)n1
pKa (basic group): 4

Cn1c([O-])nc2nc[nH]c2c1=O
pKa (acidic group): 11.9

O=C([O-])CSc1nc2cc3ccccc3cc2[nH]1
pKa (basic group): 4.68

COc1ccc(O)c(CN(C)C)c1
pKa (acidic group): 11.5
pKa (basic group): 8.7

CCCCCCc1c(-c2ccccc2)nn(-c2ccccc2)c1O
pKa (acidic group): 7.4

CN(C)CCOC(C)(c1ccccc1)c1ccccn1 (centres undefined)
pKa (basic group): 9.2

Cc1ccccc1SCC(=O)O
pKa (acidic group): 3.46

C[NH+](C)CCC/N=C(\c1ccccc1)c1ccc2ccccc2c1
pKa (basic group): 5.1

SCC[NH2+]CCc1ccccc1
pKa (acidic group): 7.85

NC(=O)C([NH3+])Cc1c[nH]cn1 (centres undefined)
pKa (basic group): 5.78

Cc1cc(C)nc(NS(=O)(=O)c2ccc(N)cc2)n1
pKa (acidic group): 7.44
pKa (basic group): 2.35

O=C(O)c1ncccn1
pKa (acidic group): 2.85
pKa (basic group): -1.13

Cc1cc(C)c(C(=O)C(=O)O)c(C)c1
pKa (acidic group): 1.34

CC[C@H](C(=O)O)[C@@]1(O)C[C@H]2CC[C@@H]1C2
pKa (acidic group): 4.07

O=C(O)c1ccc(Br)c([N+](=O)[O-])c1
pKa (acidic group): 3.24

O=[N+]([O-])c1ccccc1/C=N/O
pKa (acidic group): 10.1

CCC(=O)C(CCN(C)C)(c1ccccc1)c1ccccc1
pKa (basic group): 9.23

CC(C)Nc1ncnc2c1cnn2C
pKa (basic group): 4.22

COc1cc(C(=O)O)cc(OC)c1O
pKa (acidic group): 4.2

O=C/C(O)=C\[O-]
pKa (acidic group): 13

c1cncc(-c2ccc[nH+]c2)c1
pKa (basic group): 3

CCN(CC)CCOCC[NH+](CC)CC
pKa (basic group): 8.61

S=CNc1ccccc1Cl
pKa (acidic group): 10

Nc1ccc2nc3ccccc3nc2c1
pKa (basic group): 4.52

CCCNCCC
pKa (basic group): 11

C[C@H]1C[C@@]23[C@@H]4CCCN2CCC[C@H]3[C@@H](O)C[C@H]4C1=O
pKa (basic group): 9.13

O=C(O)[C@H]1[C@@H]2C=C[C@H]1CC2
pKa (acidic group): 4.58

CC1(C)CC(=O)CC(=O)C1
pKa (acidic group): 5.21

[O-]c1nc(C(F)(F)F)nc2nc[nH]c12
pKa (acidic group): 11.2
pKa (basic group): 5.1

CCN(CC)Cc1cc([N+](=O)[O-])ccc1[O-]
pKa (basic group): 11

c1nc(Cc2c[nH]c(Cc3[nH]cc[nH+]3)n2)c[nH]1
pKa (basic group): 6.15

Cc1cc2ccccc2nc1C
pKa (basic group): 4.93

Nc1ccc([N+](=O)[O-])c2ccccc12
pKa (basic group): 0.53

C1CCCNCCC1
pKa (basic group): 10.8

NC(=O)C(c1ccccc1)c1ccccn1 (centres undefined)
pKa (basic group): 3.8

C/C(=C\C=C\C(C)C(=O)[O-])[C@H]1CN[C@H](C(=O)[O-])[C@H]1CC(=O)[O-] (some centres undefined)
pKa (basic group): 9.82

CC(=O)c1ccc([N+](=O)[O-])cc1
pKa (acidic group): 16.6

COc1ccc(-c2cn3cccnc3n2)c(OC)c1
pKa (basic group): 4.34

Cc1cc(C)n(Cc2cc(C)[nH]n2)n1
pKa (basic group): 3.5

Cc1ccccc1C(=NCCCCN(C)C)c1ccccc1C
pKa (basic group): 8.8

COc1cc(S(C)=O)ccc1-c1nc2ccccc2[nH]1 (centres undefined)
pKa (basic group): 4.76

O=S(=O)([O-])c1cc(O)c2cn[nH]c2c1
pKa (acidic group): 8.1

C1CCN(CCC[NH+]2CCCCC2)CC1
pKa (basic group): 7.97

CC(C)(C)C(=O)C(=O)O
pKa (acidic group): 2.3

Cc1nsc(S)n1
pKa (acidic group): 5.18

Cc1ccc(Br)c(O)c(=O)c1
pKa (acidic group): 6.3

O=C(Oc1cccc(Cl)c1)C1c2ccccc2-c2ccccc21
pKa (acidic group): 10.2

CN(C)c1ccc(N2CCOCC2)cc1
pKa (basic group): 5.7

Nc1nc(N)nc(Nc2ccccc2)n1
pKa (basic group): 4.65

O=C1NC(=O)c2cc(Cl)ccc21
pKa (acidic group): 9.48

NC[C@@H](O)[C@H]1NC(N)=[NH+][C@@H]1C(=O)[O-]
pKa (basic group): 9.3

NCc1ccccc1O
pKa (basic group): 8.89

C1CN(CC2CO2)CCO1 (centres undefined)
pKa (basic group): 5.88

Nc1n[nH]c(N)c1/N=N/c1ccc(O)cc1
pKa (acidic group): 7.81
pKa (basic group): 3.48

COc1cc2c(cc1O)[C@H]1Cc3cc(OC)c(OC)cc3[C@H](C2)N1C
pKa (acidic group): 9.8

CC(=O)CC(=S)Nc1ccc(C)cc1
pKa (acidic group): 7.65

COc1nc2ccccc2nc1C
pKa (basic group): 1.38

CC1(C)CCC(C2CCC(C)(C)[NH2+]2)N1 (centres undefined)
pKa (basic group): 6.95

Cc1ccc(CN)cc1
pKa (basic group): 9.51

NCCc1c[nH]cn1
pKa (basic group): 9.87

CCOc1ccc(C(=O)O)c(C)c1
pKa (acidic group): 4.54

Clc1ccc(Nc2ccccc2)cc1
pKa (basic group): 0

CCNCc1ccc(C)cc1
pKa (basic group): 10

CCN(C)CCOCCN(C)C
pKa (basic group): 9.65

OCn1cnc2ccccc21
pKa (basic group): 5.44

CCOC(=O)c1ccc(O)c([N+](=O)[O-])c1
pKa (acidic group): 5.44

Cc1ncnc2c1NCCN2
pKa (basic group): 6.74

Cc1c[nH]c(C(=O)O)c1
pKa (acidic group): 4.6

Nc1cccc2cccnc12
pKa (basic group): 4.01

Cc1ccc(C(=O)O)[nH]1
pKa (acidic group): 5

Oc1cc2ccccc2cc1C1=[NH+]CCN1
pKa (acidic group): 7.01

O=[N+]([O-])c1ccc(S(=O)(=O)NCc2ccccc2)cc1
pKa (acidic group): 10.1

CC(CN)/C(N)=N/O (centres undefined)
pKa (basic group): 9.15

C[Si](C)(C)CNc1ccccc1
pKa (basic group): 5.3
